Assay: xn = mol fraction of the nth substance listed
Settings: 100 kPa, Liquid; for viscosity: Capillary tube (Ostwald / Ubbelohde) method; for mass density: Vibrating tube method

C1CC[C@H]2CCCC[C@@H]2C1 [trans-decahydronaphthalene] + CCCCCCCCCCC
Settings	mass density, 293.15 K [kg/m3]	mass density, 298.15 K [kg/m3]	mass density, 303.15 K [kg/m3]	mass density, 308.15 K [kg/m3]	viscosity, 293.15 K [mPa·s]	viscosity, 298.15 K [mPa·s]	viscosity, 303.15 K [mPa·s]	viscosity, 308.15 K [mPa·s]	viscosity, 313.15 K [mPa·s]
x1 = 0.1041	751.02	747.37	743.67	739.97	1.214	1.12	1.037	0.965	0.9
x1 = 0.2052	761.89	758.22	754.53	750.83	1.258	1.159	1.073	0.996	0.929
x1 = 0.3027	772.86	769.19	765.5	761.8	1.315	1.212	1.121	1.041	0.972
x1 = 0.3999	784.34	780.66	776.97	773.28	1.369	1.26	1.165	1.081	1.006
x1 = 0.4997	796.76	793.09	789.4	785.7	1.444	1.326	1.222	1.136	1.058
x1 = 0.5991	809.74	806.06	802.37	798.67	1.529	1.406	1.296	1.201	–
x1 = 0.6991	823.47	819.79	816.09	812.39	1.625	1.492	1.376	1.274	–
x1 = 0.8019	838.4	834.72	831.02	827.31	1.752	1.606	1.478	1.366	–
x1 = 0.8992	853.35	849.65	845.94	842.22	1.899	1.741	1.597	1.473	–
x1 = 1	869.78	866.07	862.34	858.61	2.112	1.925	1.769	1.628	–
